How the values were obtained:
[1] = Reactivity with pharmacological agent (aspirin decomposition ratio on storage); type: physicochemical; conditions: 60° C., airtight, two weeks
Experimental: Aspirin (official crystal aspirin one pass treated with a small pulverizer φ 0.5 mm) and each cellulose sample were blended by powder-powder in 5/5 (total amount: 0.5 g) in dry process and mixed in glass sample bottle and stored with airtight stopper (60° C.) in an oven (manufactured by Tabai Espec, trade name, perfect oven) for two weeks and decomposition ratio was measured. […] 0.25 g of aspirin after stored (0.5 g for powder blend product) was introduced into a 50 mL measuring flask and added with ethanol to total 50 mL and shaken for five minutes. The resulted ethanol solution was filtered and the filtrate was transferred to a 100 mL measuring flask and added with ethanol to total 100 mL. 1 mL of this ethanol solution and 1 mL of the above color identification test liquid were introduced into a 50 mL measuring flask and added with pure water to total 50 mL and absorbance at wavelength 532 nm was measured with an ultraviolet absorbance measuring instrument (manufactured by JASCO Corp.). The decomposition ratio was calculated as follows: Decomposition ratio=(1−(absorbance after stored/absorbance before stored))×100(%).

[2] = Elution test of ethenzamide; type: physicochemical; conditions: molded product at 50 MPa or pulverized bulk drug
Experimental: 0.2 g of the obtained mixed powder was weighed and put in a mortar (manufactured by Kikusui Seisakusho, Ltd. using materials SUS2, 3) and compressed with a round plane mallet (manufactured by Kikusui Seisakusho, Ltd. using materials SUS2, […], trade name, PCM-1A, compression rate 1 cm/min) and after held at the aimed pressure for 10 seconds, a columnar molded product was taken out. […]
1 g of Cellulose Aggregate G was added to 10 mL of a solution in which ethenzamide (manufactured by API Co., Ltd., a powder grade was pulverized with a small size pulverizer) was dissolved in ethanol (manufactured by Wako Pure Chemical Industries, Ltd., special grade chemical) in a ratio of 5:95 and stirred by a magnetic stirrer for three minutes. The obtained dispersion was introduced into an evaporator and completely deprived of solvent to obtain a powder sample.
Similarly operating as in Example 14 except that the pressure at the time of preparing a columnar molded product from this powder was changed to 50 MPa and elution test was performed.
Only the ethenzamide pulverized by the method of Example 15 was subjected to elution test.

SMILES	aspirin decomposition ratio [1]	Dissolution Rate after 1 hour [2]
CC(=O)Oc1ccccc1C(=O)O [aspirin, Aspirin]	15%	–
CCOc1ccccc1C(N)=O [Bulk Ethenzamide, ethenzamide]	–	9%

Reference: US8597686B2, “Porous cellulose aggregate and formed product composition comprising the same” (Asahi Kasei Chemicals Corporation, priority 2004, dated 2013)
